Results: patent publication US20200206187A1, “SCREENING PLATFORM TO IDENTIFY THERAPEUTIC DRUGS OR AGENTS FOR TREATMENT OF ALZHEIMER'S DISEASE” (priority 2017, published 2020)
pEC50: −log10 of the molar value. “Also recorded” adds a separate entry of the source.

Tests used:
Assay type in all cases: cell-based, murine
[1] = tested on: wt-CD33 expressing BV2 cells; assay: Abeta42 uptake assay into wt-CD33 expressing BV2 cells (Wako Abeta42 ELISA); settings: wt-CD33 expressing BV2, 3 h pre-treatment, 300 nM Abeta42 for 2 h (FIG. 4)
Method: (§1) As shown in the figures, compounds were selected and tested in microglial and 3D AD cell culture models at a range of concentrations, and over a period of time ranging from hours to days. The culture models were chosen to elucidate different stages and biological aspects of Alzheimer's disease. The toxicity of the compounds was assessed analyzing the cultures media with the commercially available assay (CytoTox-ONE™, Promega) that measures the release of LDH. Toxic concentrations were excluded from further testing. For microglial cultures, Aβ42 and Aβ40 uptake assays were carried forward for 2 to 24 hours following 3 hours of compound pre-treatment. The experimental outcomes were determined by measuring increased internalized Aβ42 and Aβ40 levels by a commercially available ELISA assay (Wako Abeta42 ELISA kit). Alternatively, LPS-activation assays were carried forward for 3 h following 3 hours of compound pre-treatment. The reduction of toxic cytokines released in the culture media was monitored.
(§2) Naïve BV2 Cells, or BV2 stably expressing wt-CD33, were seeded in 24-well plates at the density of 2.5×10E5 cells for BV2 and 4×10E5 cells for wt-CD33 clone, in proliferating media. […] Protein concentrations in the lysate supernatants were determined with the Pierce™ BCA protein assay kit. 2-3 μg/well of protein from the lysates was analyzed for Abeta42 uptake using the Wako Abeta42 ELISA kit. […]

[2] = tested on: wt-CD33 expressing BV2 cells; assay: Abeta40 uptake assay into wt-CD33 expressing BV2 cells (Cisbio Abeta40 HTRF); settings: wt-CD33 expressing BV2, 3 h pre-treatment, 300 nM Abeta40 for 2 h (FIG. 6)
Method: as §1, §2

[3] = tested on: naïve BV2 microglial cells; assay: Abeta40 uptake assay into naïve BV2 microglial cells (Cisbio Abeta40 HTRF); settings: naïve BV2, 3 h pre-treatment, 300 nM Abeta40 for 2 h (FIG. 5)
Method: as §1, §2

[4] = tested on: wtCD33-expressing microglial cells; assay: LDH toxicity assay (CytoTox-ONE) on wtCD33-expressing microglial cells; settings: 5 hours of treatment (FIG. 2)
Method: as §1
(§3) Naïve BV2 Cells, or BV2 stably expressing wt-CD33, were seeded in 24-well plates at the density of 2.5×10E5 cells for BV2 and 4×10E5 cells for wt-CD33 clone, in proliferating media. On the following day, cells were treated with compounds, or DMSO as a control, at different concentrations in proliferating media for 3 hours. For Abeta42 and Abeta40 uptake assays, cells were washed twice with 500 μL/well of PBS and treated with compounds/DMSO in the presence of 300 nM Abeta peptide in DMEM media for 2 hours. At the end of the 2 hour incubation, 150 μL of media were collected from the 24-well plates. They were centrifuged at 4° C., 2500 rpm for 10 min, transferred to new plates and used to assess compounds toxicity with CytoTox-ONE™ (LDH) assay. […] Protein concentrations in the lysate supernatants were determined with the Pierce™ BCA protein assay kit. 2-3 μg/well of protein from the lysates was analyzed for Abeta42 uptake using the Wako Abeta42 ELISA kit. […]

[5] = tested on: naïve BV2 microglial cells; assay: LDH toxicity assay (CytoTox-ONE) on naïve BV2 microglial cells; settings: 5 hours of treatment (FIG. 1)
Method: as §1, §3

[6] = tested on: naïve BV2 microglial cells; assay: Abeta42 uptake assay into naïve BV2 microglial cells (Wako Abeta42 ELISA); settings: naïve BV2, 3 h pre-treatment, 300 nM Abeta42 for 2 h (FIG. 3)
Method: as §1, §2

[7] = tested on: naïve BV2 microglial cells; assay: Abeta42 uptake assay in microglial cells, 24-hour pre-treatment protocol
Method: (§4) The protocol used for 24-hour pre-treatment testing in microglial cells was as follows.
(§5) On day zero the naïve BV2 microglial cells were seeded in proliferating media.
(§6) On day one the cells were then treated with 817MA, or DMSO as a control, in proliferating media for 24 hours, at concentrations ranging from 0 to 50 μM.
(§7) On day two the cells were then washed twice with PBS and treated with compounds/DMSO in the presence of 300 nM Abeta42 peptide in DMEM media for 2 hours. The compounds toxicity was assessed in the media collected at the end of the treatment with CytoTox-ONE™ (LDH) assay. The remaining cells were lysed with RIPA buffer supplemented with protease and phosphatase inhibitors. Protein concentrations were determined with the Pierce™ BCA protein assay kit. Normalized lysates were analyzed for Abeta42 uptake using the Wako Abeta42 ELISA kit.

[8] = tested on: naïve BV2 microglial cells; assay: LDH toxicity assay in microglial cells, 24-hour pre-treatment protocol; settings: 24 h pre-treatment (FIG. 25)
Method: as §4, §5, §6, §7

[9] = tested on: LPS-activated BV2 microglial cells; assay: BV2 LPS activation cytokine assay (MSD Proinflammatory Panel 1); settings: BV2, 1 μg/mL LPS 3 h, maleate
Method: as §1
For microglial activation experiments, cells were treated with compounds/DMSO in the presence of 1 μg/mL LPS in proliferating media for 3 hours. The media was collected, cleared of particulate and analyzed using MSD Proinflammatory Panel 1 cytokine assay kit.
FIG. 7 tabulates the results from an LPS activation testing of microglial cells, showing that cytokines KC/GRO, IL-6, IL-10 and TNF-α were detectable upon LPS activation, although KC/GRO was only detectable in undiluted media. The 10 cytokines were simultaneously analyzed in microglial conditioned media. FIG. 8-15 show the results for an assay to test the effect of test compounds DMSO, 817MA, 817A11 and 614P on cytokines KC/GRO, IL-6, IL-10 and TNF-α. […] The two sequential assays determine which if any cytokines are detected upon LPS activation, followed by determination of the reduction in detectable cytokines upon treatment/exposure to a test compound.

Row | Abeta42 uptake EC50 (comparison between compounds) [1] | Abeta42 uptake EC50 (comparison between compounds) [6] | pEC50 ([7]; Mus musculus, BV-2, following 24 hours of compound pre-treatment (FIG. 26)) | SMILES | Abeta40 uptake EC50 (comparison between compounds) [2] | Abeta40 uptake EC50 (comparison between compounds) [3] | LDH toxicity [4] | LDH toxicity [5] | Abeta42 uptake versus DMSO control ([7]; above about 1 μM, 24 h pre-treatment (FIG. 26)) | LDH toxicity compared to DMSO ([8]; at about 30 μM) | LDH toxicity ([8]; below about 50 μM) | TNFα production upon LPS activation ([9]; first and second experiment (FIG. 8, 9)) | IL-6 production upon LPS activation ([9]; first and second experiment (FIG. 10, 11)) | IL-10 production upon LPS activation ([9]; first and second experiment (FIG. 12, 13))
1 | higher EC50 | higher EC50 |  | CS(=O)(=O)Nc1cc2occ(NC=O)c(=O)c2cc1Oc1ccccc1 [Compound 614P, N-(3-formamido-4-oxo-6-phenoxy-4H-chromen-7-yl)] | higher EC50 than both 817MA and 817A11 | higher EC50 than both 817MA and 817A11 | No statistically significant toxicity | No statistically significant toxicity |  |  |  |  |  | 
2 |  |  |  | O=C(CCOCCc1ccc2sccc2c1)N1CC(O)C1 [Compound 817A11, 1-{3-[2-(1-benzothiophen-5-yl)ethoxy]propionyl}azetidin-3-ol] | lower EC50 Abeta40 uptake than 817MA treated cells | lower EC50 Abeta40 uptake than 817MA treated cells | No statistically significant toxicity | No statistically significant toxicity |  |  |  |  |  | 
3 |  |  | ~4.70 | O=C(O)/C=C\C(=O)O.OC1CN(CCCOCCc2ccc3sccc3c2)C1 [Compound 817MA, 1-(3-(2-(1-benzothiophen-5-yl)ethoxy)propyl)azetidin-3-ol maleate] |  |  | No statistically significant toxicity | No statistically significant toxicity | greater than the DMSO control | no statistically significant toxicity | low or no toxicity | reduced concentrations; also recorded: only compound effectively reducing TNFα production | reduced concentrations; also recorded: most effective compound for reducing IL-6 production | reduced concentrations; also recorded: most effective compound for reducing IL-10 production
